Data on three compounds can be found in BindingDB's records for doi:10.1016/j.bmcl.2010.04.142 (Glaxosmithkline, 2010).

Test [1] can be described thus: Antagonist activity at CCR2 in human THP1 cells assessed as inhibition of CCL2-induced chemotaxis in presence of 1% human serum.
Test [2] is described as follows: Antagonist activity at CCR2 in human THP1 cells assessed as inhibition of CCL2-induced chemotaxis in presence of 1% fetal bovine serum.

Turning to `O=C(O)c1ccccc1Oc1c(F)cc(C(F)(F)F)cc1NS(=O)(=O)c1ccc(Cl)cc1`, the Ki in test [1] turned out to be 12600 nM; in test [2], 63.1 nM.
In the same order, the values of `O=C(O)c1ccccc1Oc1ccccc1NS(=O)(=O)c1ccc(Cl)cc1` are 398 nM and 398 nM.
In the same order, the values of `O=C(O)c1c(F)cccc1Oc1ccc(C(F)(F)F)cc1NS(=O)(=O)c1ccc(Cl)cc1` are 10000 nM and 158 nM.

For orientation: Ki means the dissociation constant of the complex between target and ligand, obtained from inhibition or displacement.
